We go through one compound from PMC6149849, “Cymantrenyl-Nucleobases: Synthesis, Anticancer, Antitrypanosomal and Antimicrobial Activity Studies” (Molecules : A Journal of Synthetic Chemistry and Natural …, 2017).

This experiment relates to S. aureus ATCC 25923. Put plainly: Effect on bacterial morphology (SEM) with MIC and MBC. The experiment is classed as cell-based, Staphylococcus aureus. The procedure:
In order to elucidate the bactericidal mechanism of action of cymantrenes, the effect of compound 1 on the morphology of S. aureus ATCC 25923 was exemplary studied by scanning electron microscopy (SEM) (Figure 9).
The effect of compound 1 on bacterial morphology was studied by SEM, as previously described. Briefly, samples of S. aureus ATCC 25923 (10^5 CFU/mL) were centrifuged (600× g, 5 min) and resuspended in growth medium containing compound 1 at concentration of 48 or 64 µg/mL. After incubation for 24 h at 37 °C, the cells were washed twice with PBS (0.1 × PBS), fixed with 2.5% glutaraldehyde (overnight), filtered (0.2 μm, pore size cutoff), and subsequently dehydrated in a series of ethanol washes (30%, 50%, 70%, 80%, 90% and 100%; twice for 15 min). The solvent was then evaporated and the samples were coated with a thin layer of platinum (15 nm). SEM images were recorded using a SEM Inspect F50 (FEI Co., Eindhoven, The Netherlands) at an energy range of 10–15 keV.

For `O=C(CCn1cc(F)c(=O)[nH]c1=O)[C]12[CH]3[CH]4[CH]5[CH]1[Mn]4532.[C-]#[O+].[C-]#[O+].[C-]#[O+]` (stereo not drawn) [Compound 1], the “MIC, S. aureus ATCC 25923” value came out at 32 µg/mL and the “minimal bactericidal concentration; MBC, S. aureus ATCC 25923” value was 128 µg/mL. For the same compound, the “bacterial morphology by SEM” value (48 µg/mL and 64 µg/mL, 24 h) was “severe morphological alterations in cell dimensions and structure, as well as the disruption of the outer envelope”.
